According to patent EP4692090A1 (Shanghai Fosun Pharmaceutical (Group) Co., Ltd., priority 2023, dated 2024):
Like-named read-outs stand apart in the source and are kept apart here.

What was measured:
[1] = test system: LoVo cells; test: LoVo cell proliferation assay (CellTiter-Glo); assay type: cell-based; details: Homo sapiens, LoVo, 120 h, maximum concentration 10 µM, 9 concentrations
Procedure, shortened: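 LoVo cells, 2,000 per well, were treated after overnight attachment with 9-point 3-fold dilutions from 10 µM for 5 days at 37 °C. Viability was read by CellTiter-Glo luminescence. Inhibition % was taken relative to DMSO control, and IC50 came from the concentration–inhibition curve.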

[2] = molecular target: T1, ATR kinase (Homo sapiens, UniProt Q13535); test: Inhibitory effect on ATR kinase activity (Caliper mobility shift, FAM-labeled RAD17 peptide substrate); assay type: biochemical
T1 construct: purchased Eurofins 14-953
T1 sequence (Q13535 whole entry): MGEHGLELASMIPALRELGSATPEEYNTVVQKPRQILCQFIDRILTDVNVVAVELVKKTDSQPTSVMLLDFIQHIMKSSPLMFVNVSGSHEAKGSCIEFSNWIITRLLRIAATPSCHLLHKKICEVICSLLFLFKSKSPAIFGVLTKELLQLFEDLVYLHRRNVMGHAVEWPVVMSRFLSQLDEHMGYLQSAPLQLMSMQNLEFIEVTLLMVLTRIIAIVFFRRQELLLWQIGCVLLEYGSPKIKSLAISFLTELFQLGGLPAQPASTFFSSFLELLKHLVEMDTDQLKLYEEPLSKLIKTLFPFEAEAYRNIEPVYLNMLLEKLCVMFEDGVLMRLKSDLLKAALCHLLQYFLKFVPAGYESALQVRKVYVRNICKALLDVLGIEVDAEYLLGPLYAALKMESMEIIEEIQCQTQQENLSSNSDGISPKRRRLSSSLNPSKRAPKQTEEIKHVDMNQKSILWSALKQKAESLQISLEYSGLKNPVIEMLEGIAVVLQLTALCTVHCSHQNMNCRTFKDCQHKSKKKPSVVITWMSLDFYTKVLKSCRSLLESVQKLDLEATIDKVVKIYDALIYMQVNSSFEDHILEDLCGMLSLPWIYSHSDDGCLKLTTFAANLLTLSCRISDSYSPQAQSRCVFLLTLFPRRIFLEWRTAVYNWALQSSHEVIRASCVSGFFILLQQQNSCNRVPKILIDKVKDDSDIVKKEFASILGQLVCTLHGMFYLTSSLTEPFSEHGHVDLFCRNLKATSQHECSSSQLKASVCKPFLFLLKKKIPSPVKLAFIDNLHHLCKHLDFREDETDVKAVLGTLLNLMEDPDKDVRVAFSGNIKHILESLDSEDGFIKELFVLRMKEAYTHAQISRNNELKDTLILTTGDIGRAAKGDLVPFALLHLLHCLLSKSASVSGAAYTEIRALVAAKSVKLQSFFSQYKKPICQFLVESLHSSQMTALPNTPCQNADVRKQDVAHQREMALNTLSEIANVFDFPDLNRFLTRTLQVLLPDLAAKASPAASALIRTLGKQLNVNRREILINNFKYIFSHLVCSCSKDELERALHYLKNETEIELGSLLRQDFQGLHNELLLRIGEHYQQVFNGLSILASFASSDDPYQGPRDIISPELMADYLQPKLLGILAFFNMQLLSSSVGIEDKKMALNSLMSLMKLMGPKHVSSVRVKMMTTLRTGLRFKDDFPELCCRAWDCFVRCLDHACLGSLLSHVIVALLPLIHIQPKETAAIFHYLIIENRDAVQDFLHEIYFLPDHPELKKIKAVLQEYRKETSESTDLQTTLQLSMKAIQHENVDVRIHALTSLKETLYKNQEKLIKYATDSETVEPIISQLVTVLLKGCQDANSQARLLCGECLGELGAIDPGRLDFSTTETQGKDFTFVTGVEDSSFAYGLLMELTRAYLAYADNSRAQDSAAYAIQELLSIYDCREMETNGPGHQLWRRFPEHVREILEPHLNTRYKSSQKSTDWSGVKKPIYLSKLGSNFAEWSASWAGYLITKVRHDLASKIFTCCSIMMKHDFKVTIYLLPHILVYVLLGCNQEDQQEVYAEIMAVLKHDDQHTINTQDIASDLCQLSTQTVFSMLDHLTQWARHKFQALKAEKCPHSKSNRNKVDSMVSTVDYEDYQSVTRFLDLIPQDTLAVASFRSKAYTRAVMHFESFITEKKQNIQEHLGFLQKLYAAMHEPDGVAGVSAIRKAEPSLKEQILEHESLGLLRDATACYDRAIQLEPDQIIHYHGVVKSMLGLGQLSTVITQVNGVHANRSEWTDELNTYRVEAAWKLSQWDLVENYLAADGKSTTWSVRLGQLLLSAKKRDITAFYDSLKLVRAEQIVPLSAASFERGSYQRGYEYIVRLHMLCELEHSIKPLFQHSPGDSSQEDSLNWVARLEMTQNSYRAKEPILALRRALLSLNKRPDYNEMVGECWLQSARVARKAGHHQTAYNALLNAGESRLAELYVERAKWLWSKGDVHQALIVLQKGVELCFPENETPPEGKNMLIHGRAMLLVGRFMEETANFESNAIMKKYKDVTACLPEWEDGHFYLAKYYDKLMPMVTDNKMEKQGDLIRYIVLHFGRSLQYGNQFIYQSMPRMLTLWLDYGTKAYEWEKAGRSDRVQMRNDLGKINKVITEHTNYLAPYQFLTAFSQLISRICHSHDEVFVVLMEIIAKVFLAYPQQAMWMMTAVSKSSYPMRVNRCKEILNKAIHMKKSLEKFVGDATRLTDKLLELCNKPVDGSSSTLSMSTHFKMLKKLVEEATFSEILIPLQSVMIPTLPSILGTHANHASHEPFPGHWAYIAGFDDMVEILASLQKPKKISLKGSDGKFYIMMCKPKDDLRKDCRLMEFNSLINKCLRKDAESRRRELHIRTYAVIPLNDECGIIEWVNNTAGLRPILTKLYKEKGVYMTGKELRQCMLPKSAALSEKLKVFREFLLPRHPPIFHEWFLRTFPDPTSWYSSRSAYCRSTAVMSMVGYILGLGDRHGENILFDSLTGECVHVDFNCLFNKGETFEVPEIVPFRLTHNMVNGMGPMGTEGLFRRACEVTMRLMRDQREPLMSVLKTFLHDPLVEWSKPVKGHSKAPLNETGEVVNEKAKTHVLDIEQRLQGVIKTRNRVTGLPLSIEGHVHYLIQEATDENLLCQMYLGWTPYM
T1 sequence (Q8WXE1 whole entry partner): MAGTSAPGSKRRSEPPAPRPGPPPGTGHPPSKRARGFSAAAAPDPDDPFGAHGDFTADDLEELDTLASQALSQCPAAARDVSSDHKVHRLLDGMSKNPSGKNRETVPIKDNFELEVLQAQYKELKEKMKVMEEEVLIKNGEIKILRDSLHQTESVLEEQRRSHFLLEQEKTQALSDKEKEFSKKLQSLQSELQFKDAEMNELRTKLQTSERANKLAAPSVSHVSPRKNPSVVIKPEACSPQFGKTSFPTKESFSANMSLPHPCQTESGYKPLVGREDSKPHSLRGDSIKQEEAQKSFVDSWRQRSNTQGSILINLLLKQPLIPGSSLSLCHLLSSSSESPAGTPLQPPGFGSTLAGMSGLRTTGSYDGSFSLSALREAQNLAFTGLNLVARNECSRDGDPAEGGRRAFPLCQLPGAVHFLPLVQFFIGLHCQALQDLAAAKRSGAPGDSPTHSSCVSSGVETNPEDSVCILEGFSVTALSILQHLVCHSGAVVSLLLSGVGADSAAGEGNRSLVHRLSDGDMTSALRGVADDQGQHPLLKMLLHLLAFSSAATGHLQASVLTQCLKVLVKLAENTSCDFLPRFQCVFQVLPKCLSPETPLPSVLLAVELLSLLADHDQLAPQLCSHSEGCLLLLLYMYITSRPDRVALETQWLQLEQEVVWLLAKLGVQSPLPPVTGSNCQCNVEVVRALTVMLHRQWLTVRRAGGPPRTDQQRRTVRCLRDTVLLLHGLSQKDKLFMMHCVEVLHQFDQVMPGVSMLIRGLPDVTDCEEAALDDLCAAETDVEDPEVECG
Procedure, shortened: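 Caliper mobility-shift assay with 1 nM ATR, FAM-labeled RAD17 peptide […] and 5 mM ATP in HEPES pH 7.5 with 10 mM MnCl2, run 3 h at 28 °C and stopped with EDTA. Compounds were tested in 10-point 3-fold dilutions from 1 µM. IC50 was fitted from % inhibition of substrate conversion versus blank control.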

[3] = LoVo cells, 2,000 cells per well, 5 days incubation, CellTiter-Glo, read-out: LoVo IC50
[4] = 1 nM ATR kinase (Eurofins), 28°C for 3 hours, maximum concentration 1 µM, 10 concentrations, read-out: ATR kinase IC50
[5] = read-out: LoVo IC50 (nM), LoVo cells, 2,000 cells per well, 5 days incubation, CellTiter-Glo
[6] = read-out: ATR kinase IC50, 1 nM ATR kinase (Eurofins), 28°C for 3 hours, maximum concentration 1 µM, 10 concentrations

IC50 [1, 3] [nM]	IC50 [2, 4] [nM]	SMILES	IC50 [1, 5] [nM]	IC50 [2, 6] [nM]	IC50 ([2]; ATR kinase IC50 (nM), 1 nM ATR kinase (Eurofins), 28°C for 3 hours, maximum concentration 1 µM, 10 concentrations) [nM]
< 100	< 10	C[C@@H]1COCCN1c1cc2c3c(n1)c(-c1cc[nH]n1)nn3CCC(=O)N2C1CC1 [Compound 82, (R)-6-cyclopropyl-4-(3-methylmorpholino)-2-(1H-pyrazol-3-yl)-8,9-dihydro-1,3,6,9a-tetraazabenzo[cd]azulene-7(6H)-one]	–	–	–
< 100	10 to 100	C[C@@H]1COCCN1c1cc2c3c(n1)c(-c1cc[nH]n1)nn3CCC(=O)N2CC1CC1 [Compound 83, (R)-6-(cyclopropylmethyl)-4-(3-methylmorpholino)-2-(1H-pyrazol-3-yl)-8,9-dihydro-1,3,6,9a-tetraazabenzo[cd]azulene-7(6H)-one]	–	–	–
< 100	< 10	CC(C)CN1C(=O)CCn2nc(-c3cc[nH]n3)c3nc(N4CCOC[C@H]4C)cc1c32 [Compound 84, (R)-6-isobutyl-4-(3-methylmorpholino)-2-(1H-pyrazol-3-yl)-8,9-dihydro-1,3,6,9a-tetraazabenzo[cd]azulene-7(6H)-one]	–	–	–
< 100	10 to 100	C[C@@H]1COCCN1c1cc2c3c(n1)c(-c1cc[nH]n1)nn3CCC(=O)N2CCC(F)(F)F [Compound 85, (R)-4-(3-methylmorpholino)-2-(1H-pyrazol-3-yl)-6-(3,3,3-trifluoropropyl)-8,9-dihydro-1,3,6,9a-tetraazabenzo[cd]azulene-7(6H)-one]	–	–	–
100 to 1000	100 to 1000	C[C@@H]1COCCN1c1cc2c3c(n1)c(-c1cc[nH]n1)nn3CCC(=O)N2C [Compound 86, (R)-6-methyl-4-(3-methylmorpholino)-2-(1H-pyrazol-3-yl)-8,9-dihydro-1,3,6,9a-tetraazabenzo[cd]azulene-7(6H)-one]	–	–	–
–	–	C[C@@H]1COCCN1c1cc2c3c(n1)c(-c1cc[nH]n1)nn3CCC(=O)N2CC1(C)CC1 [Compound 87, (R)-6-((1-methylcyclopropyl)methyl)-4-(3-methylmorpholinyl)-2-(1H-pyrazol-3-yl)-8,9-dihydro-1,3,6,9a-tetraazabenzo[cd]azulene-7(6H)-one]	< 100	10 to 100	–
–	–	C[C@@H]1COCCN1c1cc2c3c(n1)c(-c1cc[nH]n1)nn3CCC(=O)N2C1(C)CC1 [Compound 88, (R)-6-(1-methylcyclopropyl)-4-(3-methylmorpholinyl)-2-(1H-pyrazol-3-yl)-8,9-dihydro-1,3,6,9a-tetraazabenzo[cd]azulene-7(6H)-one]	< 100	< 10	–
–	–	C[C@@H]1COCCN1c1cc2c3c(n1)c(-c1cc[nH]n1)nn3CCC(=O)N2C1CC1(F)F (stereo partly drawn) [Compound 89, 6-(2,2-difluorocyclopropyl)-4-((R)-3-methylmorpholinyl)-2-(1H-pyrazol-3-yl)-8,9-dihydro-1,3,6,9a-tetraazabenzo[cd]azulene-7(6H)-one]	100 to 1000	< 10	–
100 to 1000	10 to 100	C[C@@H]1COCCN1c1cc2c3c(n1)c(-c1cc[nH]n1)nn3CCC(=O)N2C1CCOC1 (stereo partly drawn) [Compound 90, 4-((R)-3-methylmorpholino)-2-(1H-pyrazol-3-yl)-6-(tetrahydrofuran-3-yl)-8,9-dihydro-1,3,6,9a-tetraazabenzo[cd]azulene-7(6H)-one]	–	–	–
100 to 1000	10 to 100	C[C@@H]1COCCN1c1cc2c3c(n1)c(-c1cc[nH]n1)nn3CCC(=O)N2C1CCOCC1 [Compound 91, (R)-4-(3-methylmorpholino)-2-(1H-pyrazol-3-yl)-6-(tetrahydro-2H-pyran-4-yl)-8,9-dihydro-1,3,6,9a-tetraazabenzo[cd]azulene-7(6H)-one]	–	–	–
100 to 1000	10 to 100	C[C@@H]1COCCN1c1cc2c3c(n1)c(-c1cc[nH]n1)nn3CCC(=O)N2C1CC2(CCC2)C1 [Compound 92, (R)-4-(3-methylmorpholino)-2-(1H-pyrazol-3-yl)-6-(spiro [3.3]hept-2-yl)-8,9-dihydro-1,3,6,9a-tetraazabenzo[cd]azulene-7(6H)-one]	–	–	–
100 to 1000	10 to 100	C[C@@H]1COCCN1c1cc2c3c(n1)c(-c1cc[nH]n1)nn3CCC(=O)N2 [Compound 93, (R)-4-(3-methylmorpholino)-2-(1H-pyrazol-3-yl)-8,9-dihydro-1,3,6,9a-tetraazabenzo[cd]azulene-7(6H)-one]	–	–	–
–	–	C[C@@H]1COCCN1c1cc2c3c(n1)c(-c1cc[nH]n1)nn3CCC(=O)N2CC(C)(C)O [Compound 95, (R)-6-(2-hydroxy-2-methylpropyl)-4-(3-methylmorpholinyl)-2-(1H-pyrazol-3-yl)-8,9-dihydro-1,3,6,9a-tetraazabenzo[cd]azulene-7(6H)-one]	100 to 1000	10 to 100	–
–	–	C[C@@H]1COCCN1c1cc2c3c(n1)c(-c1cc[nH]n1)nn3CCC(=O)N2C1CC1C(F)(F)F (stereo partly drawn) [Compound 96, 4-((R)-3-methylmorpholinyl)-2-(1H-pyrazol-3-yl)-6-(2-(trifluoromethyl)cyclopropyl)-8,9-dihydro-1,3,6,9a-tetraazabenzo[cd]azulene-7(6H)-one]	100 to 1000	10 to 100	–
–	–	C[C@@H]1COCCN1c1cc2c3c(n1)c(-c1cc[nH]n1)nn3CCC(=O)N2C1CC2(CC(O)C2)C1 (stereo partly drawn) [Compound 97, (R)-6-(6-hydroxyspiro[3.3]hept-2-yl)-4-(3-methylmorpholinyl)-2-(1H-pyrazol-3-yl)-8,9-dihydro-1,3,6,9a-tetraazabenzo[cd]azulene-7(6H)-one]	100 to 1000	< 10	–
–	–	CCC(C)N1C(=O)CCn2nc(-c3cc[nH]n3)c3nc(N4CCOC[C@H]4C)cc1c32 (stereo partly drawn) [Compound 98, 6-(sec-butyl)-4-((R)-3-methylmorpholinyl)-2-(1H-pyrazol-3-yl)-8,9-dihydro-1,3,6,9a-tetraazabenzo[cd]azulene-7(6H)-one]	< 100	< 10	–
–	–	C[C@@H]1COCCN1c1cc2c3c(n1)c(-c1cc[nH]n1)nn3CCC(=O)N2Cc1cnn(C)c1 [Compound 99, (R)-6-((1-methyl-1H-pyrazol-4-yl)methyl)-4-(3-methylmorpholinyl)-2-(1H-pyrazol-3-yl)-8,9-dihydro-1,3,6,9a-tetraazabenzo[cd]azulene-7(6H)-one]	100 to 1000	10 to 100	–
–	–	CC(C1CC1)N1C(=O)CCn2nc(-c3cc[nH]n3)c3nc(N4CCOC[C@H]4C)cc1c32 (stereo partly drawn) [Compound 100, 6-(1-cyclopropylethyl)-4-((R)-3-methylmorpholinyl)-2-(1H-pyrazol-3-yl)-8,9-dihydro-1,3,6,9a-tetraazabenzo[cd]azulene-7(6H)-one]	100 to 1000	10 to 100	–
–	–	C[C@@H]1COCCN1c1cc2c3c(n1)c(-c1cc[nH]n1)nn3CCC(=O)N2C1(C)COC1 [Compound 101, (R)-4-(3-methylmorpholinyl)-6-(3-methyloxetan-3-yl)-2-(1H-pyrazol-3-yl)-8,9-dihydro-1,3,6,9a-tetraazabenzo[cd]azulene-7(6H)-one]	100 to 1000	10 to 100	–
–	–	C[C@@H]1COCCN1c1cc2c3c(n1)c(-c1cc[nH]n1)nn3CCC(=O)N2C1(C(F)F)CC1 [Compound 102, (R)-6-(1-(difluoromethyl)cyclopropyl)-4-(3-methylmorpholinyl)-2-(1H-pyrazol-3-yl)-8,9-dihydro-1,3,6,9a-tetraazabenzo[cd]azulene-7(6H)-one]	< 100	< 10	–
–	–	C[C@@H]1COCCN1c1cc2c3c(n1)c(-c1cc[nH]n1)nn3CCC(=O)N2CC#CC(C)(C)O [Compound 103, (R)-6-(4-hydroxy-4-methylpent-2-yn-1-yl)-4-(3-methylmorpholinyl)-2-(1H-pyrazol-3-yl)-8,9-dihydro-1,3,6,9a-tetraazabenzo[cd]azulene-7(6H)-one]	100 to 1000	10 to 100	–
–	–	C[C@@H]1COCCN1c1cc2c3c(n1)c(-c1cc[nH]n1)nn3CCC(=O)N2C1(C#N)CC1 [Compound 105, (R)-1-(4-(3-methylmorpholinyl)-7-oxo-2-(1H-pyrazol-3-yl)-8,9-dihydro-1,3,6,9a-tetraazabenzo[cd]azulene-6(7H)-yl)cyclopropane-1-carbonitrile]	< 100	< 10	–
–	–	C=CC(C)N1C(=O)CCn2nc(-c3cc[nH]n3)c3nc(N4CCOC[C@H]4C)cc1c32 (stereo partly drawn) [Compound 106, 6-(but-3-en-2-yl)-4-((R)-3-methylmorpholinyl)-2-(1H-pyrazol-3-yl)-8,9-dihydro-1,3,6,9a-tetraazabenzo[cd]azulene-7(6H)-one]	< 100	< 10	–
–	–	COCC12CC(N3C(=O)CCn4nc(-c5cc[nH]n5)c5nc(N6CCOC[C@H]6C)cc3c54)(C1)C2 [Compound 107, (R)-6-(3-(methoxymethyl)bicyclo[1.1.1]pentan-1-yl)-4-(3-methylmorpholinyl)-2-(1H-pyrazol-3-yl)-8,9-dihydro-1,3,6,9a-tetraazabenzo[cd]azulene-7(6H)-one]	100 to 1000	< 10	–
–	–	C[C@@H]1COCCN1c1cc2c3c(n1)c(-c1cc[nH]n1)nn3CCC(=O)N2C1(C2CC2)CC1 [Compound 108, (R)-6-([1,1'-bis(cyclopropane)]-1-yl)-4-(3-methylmorpholinyl)-2-(1H-pyrazol-3-yl)-8,9-dihydro-1,3,6,9a-tetraazabenzo[cd]azulene-7(6H)-one]	100 to 1000	–	< 10
